From paper PMC8146883, “A New Thermophilic Ene-Reductase from the Filamentous Anoxygenic Phototrophic Bacterium Chloroflexus aggregans” (Microorganisms, 2021)

Molecular target: T1, CaOYE (Chloroflexus aggregans, UniProt B8G5D6)
T1 construct: gene Cagg_2779; full-length ORF in pET-28a(+) (NdeI/BamHI), N-terminal His6-tag, E. coli BL21(DE3); model visible Met1 to Trp354; monomer in solution, dimer in crystal
Test: X-ray crystal structure, […] Å
Type: binding
Details: non-covalent, active site; crystals from 100 mM HEPES pH 7.0, 1.1 M sodium malonate

T1 sequence (B8G5D6 whole entry): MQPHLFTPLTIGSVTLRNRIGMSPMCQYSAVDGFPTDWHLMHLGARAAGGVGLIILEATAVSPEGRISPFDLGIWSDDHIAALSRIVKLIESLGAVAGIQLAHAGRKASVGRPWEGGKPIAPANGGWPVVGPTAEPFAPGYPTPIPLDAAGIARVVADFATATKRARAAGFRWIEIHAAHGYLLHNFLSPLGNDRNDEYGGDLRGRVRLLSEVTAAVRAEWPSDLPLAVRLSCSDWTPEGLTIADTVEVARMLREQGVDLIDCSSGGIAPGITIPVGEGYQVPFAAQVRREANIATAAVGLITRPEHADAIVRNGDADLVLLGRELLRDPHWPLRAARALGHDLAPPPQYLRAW

Compound: Cc1cc2nc3c(=O)[nH]c(=O)nc-3n(C[C@H](O)[C@H](O)[C@H](O)COP(=O)(O)O)c2cc1C [FMN]
- X-ray crystal structure, 2.40 Å: The enzyme accommodates one molecule of FMN cofactor on the top of the β-barrel core
